From PubChem BioAssay (NCI)
Several values for one entry are separate records, joined by “and”; a condition that tells them apart may be missing. Identical values can stand only once.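 How tested: cells in 96-well plates exposed to compound for 48 hours at five concentrations. GI50: concentration for 50% inhibition of growth. TGI: total growth inhibition.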

Legend:
Test in all cases: inhibition of tumour cell growth, NCI panel, 48 h
[1] = test system: A549 NSCLC
[2] = test system: HT29 colon
[3] = test system: OVCAR-8 ovarian
[4] = test system: T-47D breast
[5] = test system: LOX IMVI melanoma
[6] = test system: SF-539 CNS
[7] = test system: RXF 393 renal
[8] = test system: TK-10 renal

Row | SMILES | GI50 [1] | TGI [1] | GI50 [2] | TGI [2] | GI50 [3] | TGI [3] | GI50 [4] | TGI [4] | GI50 [5] | TGI [5] | GI50 [6] | TGI [6] | GI50 [7] | TGI [7] | GI50 [8] | TGI [8]
1 | COc1ccccc1C1=C(Nc2ccccc2)C(=O)NC1=O | > 25 µM | > 25 µM | > 25 µM | > 25 µM | > 25 µM | > 25 µM | > 25000 nM | > 25 µM | > 25000 nM | > 25 µM | > 25 µM | > 25 µM | 7.87 µM | > 25 µM | > 25 µM | > 25 µM
2 | CCOC(=O)c1c(C)n(Cc2ccccc2)c2c1cc(O)c1[nH]c(Cc3ccccc3)nc12 | 12.4 µM | 65.7 µM | 6.79 µM | > 34.4 µM | 29.6 µM | > 100 µM | 9740 nM | > 36.6 µM | 13800 nM | > 67.8 µM | 17.1 µM | > 100 µM | 3.4 µM | 14.8 µM | 1.5 µM | 54.5 µM
3 | CC1=C(/C=C/C(C)=C/C=C/C(C)=C/C=N/NC(=S)NC(=S)N/N=C/C=C(C)/C=C/C=C(C)/C=C/C2=C(C)CCCC2(C)C)C(C)(C)CCC1 | 5.4 µM and 3.79 µM | 12.7 µM and 10.8 µM | 1.91 µM and 1.07 µM | 8.83 µM and 3.69 µM | 3.71 µM and 2.06 µM | 12.3 µM and 7.32 µM | 1490 nM and 1090 nM | 8.43 µM and 4.34 µM | 1800 nM and 1110 nM | 6.53 µM and 3.02 µM | 1.13 µM and 0.994 µM | 2.85 µM and 2.03 µM | 0.935 µM and 0.847 µM | 1.87 µM and 1.58 µM | 8.6 µM and 2.2 µM | 16.1 µM and 7.54 µM
4 | Nc1nc(N)c(C=Nc2ccc(Br)cc2)c(Nc2ccc(Br)cc2)n1 | 12.4 µM | 29.6 µM | 5.81 µM | > 100 µM | 15.2 µM | 40.7 µM | 4220 nM | 18.4 µM | 3010 nM | 16.4 µM | 12.1 µM | 24.4 µM | 2.89 µM | 13.6 µM | 13 µM | 37.6 µM
5 | COc1ccc(/C=c2\sc3n(c2=O)C2C(NN=3)N(C)C(=O)N2C)cc1 (centres undefined) | 1.35 µM | > 100 µM | 0.56 µM | > 100 µM | 1.75 µM | > 100 µM | 1560 nM | > 100 µM | 1630 nM | > 100 µM | 0.78 µM | 6.04 µM | 0.603 µM | 2.75 µM | > 100 µM | > 100 µM
6 | CC(=O)OC1=CC2=CC[C@H]3[C@@H]4CCC(=O)[C@@]4(C)CC(=O)[C@]3(S)[C@@]2(C)CC1 |  | > 100 µM |  | > 100 µM |  | > 100 µM |  | > 100 µM |  | 36 µM |  | 43.1 µM |  | 39.7 µM |  | 85.1 µM
7 | NC1=NC(c2ccc(Cl)cc2)N(c2ccc(S(N)(=O)=O)cc2)C(N)=N1 (centres undefined) |  | > 100 µM |  | > 100 µM |  | > 100 µM |  | > 100 µM |  | > 100 µM |  | > 100 µM |  | > 100 µM |  | > 100 µM
8 | CCOc1cc(Br)c(C(C)NC(=O)c2cccc(OC)c2)cc1OCC (centres undefined) | 10.8 µM | > 100 µM | 5.01 µM | > 100 µM | 25.6 µM | > 100 µM | 9530 nM | > 100 µM | 22800 nM | > 100 µM | 7.2 µM | 42.8 µM | 12.6 µM | > 100 µM | 28.2 µM | > 100 µM
9 | CN(COC(=O)c1ccccc1)c1nc(N(C)COC(=O)c2ccccc2)nc(N(C)COC(=O)c2ccccc2)n1 |  | > 100 µM |  | > 100 µM |  | > 100 µM |  | > 100 µM |  | > 100 µM |  | 38.9 µM |  | 26.2 µM |  | 59.2 µM
10 | Cc1cc2cc3ccc(N(C)C)cc3nc2cc1N | 0.431 µM | 2.61 µM | 0.327 µM | 1.76 µM | 0.374 µM | 2.36 µM | 434 nM | 3.5 µM | 325 nM | 5.01 µM | 0.658 µM | 2.49 µM | 0.41 µM | 1.34 µM | 1.41 µM | 9.44 µM
11 | COc1cccc(CSCC(=O)O)c1 |  | > 100 µM |  | > 100 µM |  | > 100 µM |  | > 100 µM |  | > 100 µM |  | > 100 µM |  | > 100 µM |  | > 100 µM
12 | S=C(Nc1ccc(N=Nc2ccccc2)cc1)SCc1ccccc1 |  | 35.8 µM |  | 52.1 µM |  | 22.5 µM |  | > 100 µM |  | 38.5 µM |  | 34.5 µM |  | 46.4 µM |  | 25.5 µM
13 | CCN(Cc1ccc(F)cc1)c1ccc(CO)c(C)c1 | 17.1 µM | 69.4 µM | 20.7 µM | 55.8 µM | 11.9 µM | 38.4 µM | 920 nM | 6.95 µM | 14900 nM | 29 µM | 15 µM | 29.8 µM | 8.47 µM | 23.3 µM | 0.884 µM | 4.2 µM
14 | CCCCCCNC(=O)Oc1ccc(/C(=C(/C)Cc2ccc(OC)cc2)c2ccc(OCCCN(C)C)cc2)cc1 | 16.6 µM | 31.2 µM | 4.4 µM | 15.2 µM | 17.3 µM | 34.5 µM | 11300 nM | 27.3 µM | 2610 nM | 15.6 µM | 16.2 µM | 30.3 µM | 14.8 µM | 29.7 µM | 17.2 µM | 31.6 µM
